The text below walks through data of patent publication US11352358B2, “FXR agonist” (XUANZHU BIOPHARMACEUTICAL CO., LTD., priority 2017, dated 2022).

The nature of series [1]: Liver microsome metabolism stability, rat liver microsome. In kind it is in vitro ADME, SD rat. The following applies: 0.5 mg protein/mL, test sample 1 μM, β-NADPH. The protocol:
Test samples: the homemade compounds 1, 2, 4 and 5 of the present invention (for their chemical names and preparation methods, see the preparation example for each compound).
a mixed liver microsomes of SD rat and human both purchased from XenoTech, with batch Nos.: 1410271 (SD rat) and 1410013 (human) respectively, wherein the microsomal protein concentrations both were 20 mg mL^−1;
experimental promoter β-NADPH purchased from Roche (batch No.: 524F0231); and a phosphate buffer solution (pH 7.4) made in the lab.
An appropriate amount of the test sample powder was weighed accurately, and dissolved in an appropriate amount of dimethyl sulfoxide (DMSO) to a concentration of 1 mM; and the solution was then diluted by 20 times with methanol to yield a 50 μM working solution.
(1) According to the proportions in table 3 “Composition of the incubation system for liver microsome metabolism stability experiment” above, for each compound, 6 mL of PBS (100 mM), 0.6 mL of MgCl2 solution (20 mM) and 3.66 mL of H2O were made into a mixed solution 1 for the incubation system (not containing the microsomes, the test sample and β-NADPH).
(2) Liver microsomes (20 mg protein/mL) were taken from a refrigerator (−80° C.), and were placed on a thermostatic water bath oscillator (37° C.) and pre-incubated for 3 mins.
(3) For each compound, 1.88 mL of the mixed solution 1 for the incubation system was added with 55 μL of microsomes to obtain a mixed solution 2 for the incubation system (not containing the test sample and β-NADPH).
(4) Sample group (containing the microsomes and D-NADPH): 616 μL of mixed solution 2 for the incubation system was added with 14 μL of the test sample working solution (with a concentration of 50 μM), and with 70 μL of R-NADPH working solution (10 mM). The resulted solution was well mixed, and the resulted solution was then duplicated. The time points of sampling were at 0 min, 5th min, 10th min, 20th min, 30th min and 60th min.
(5) Control group (containing the microsomes, and water instead of D-NADPH): 264 μL of mixed solution 2 for the incubation system was added with 6 μL of the test sample working solution (50 μM), and with 30 μL of water. The resulted solution was well mixed, and the resulted solution was then duplicated. The time points of sampling were at 0 min and 60th min.
(6) 50 μL of sample was taken from an incubating sample tube at each predetermined time point, added to a terminating sample tube (containing 300 μL of cold terminator), and vortexed; and the reaction was terminated.
(7) after 10 mins of vortexing, the solution was centrifuged for 5 mins (12,000 rpm).
(8) 100 μL of supernatant was taken and added with 100 μL of water, and the mixture solution was thoroughly vortexed; and the solution was then analyzed by LC-MS/MS.
Percentages of residual contents were calculated according to the following formula.
Background: Liver microsomes are a subcellular fraction often used to study metabolism.

The test system of series [2] is high fat-induced NAFLD/NASH mice. Put plainly: High fat-induced NAFLD/NASH mice (Experimental Example 5). In kind it is in vivo, C57BL/6J male mice. The source says: Build of NAFLD/NASH (non-alcoholic fatty liver disease/nonalcoholic steatohepatitis) mouse models: six-week-old C57BL/6J male mice were fed with high-fat feed, and were weighed each week to record the body weights of the mice; and after high-fat feeding for 8 weeks, the mice were weighed to determine whether the modeling is successful.
According to the body weight values (40 g was generally considered as a screening critical point), the successfully-modeled mice were divided into a blank control group, a model control group and the compound 2-1 (1 mg/kg) group, wherein the average body weights of all groups were consistent, without any significant difference. The mice were administered once every day (QD) (8 # intragastric syringe) for 3 weeks.
24 hrs after the last administration, blood was sampled from the inner canthus; the sampled blood stood at room temperature for 1 to 2 hrs, and was centrifuged at 4,000 rpm for 15 mins, and the serum was collected; the mice were euthanized thereafter, and a large liver lobe and a small liver lobe were cut off and put into 10% neutral formalin, and the remainings were stored in a refrigerator at −80° C. For the detailed administration method, administration dosage and administration route, see the table below.
Route, dosage and regimen of administration in experiment for influence of compounds of the present invention on high fat-induced NAFLD/NASH mice
2.1 Experimental Observation Index • 1) Body weight: Weighing was performed once every week from the beginning of modeling. Weighing was performed once every week after administration. • 2) Analysis of morphological and pathological changes of livers: Liver tissues were separated, collected and photographed. The livers were weighed, and ratios of liver weight/body weight were calculated. The tissue was sliced and stained by H&E (NAFLD score, NAS). • 3) Assay of biochemical indexes of livers: TG in the livers was extracted according to the manual of a tissue cell triglyceride assay kit (purchased from Applygen Technologies Inc. E1013), and assayed. • 4) Assay of biochemical indexes of serums: LDL in serums was assayed with a full-automatic biochemical analyzer (Hitachi 7180, model: X594).
Data were represented by mean±S.E.M., and one-way analysis of variance (ANOVA) followed LSD or independent-sample T test were performed on the statistical data with statistical software SPSS 16.0. Statistical differences were tested, and p<0.05 was defined as a significant difference.

Marks after values point to notes of the source that are not given here.

As for `O=C(O)c1ccc2nc(N3C[C@@H]4C[C@H]3C[C@H]4OCc3c(-c4c(Cl)cccc4Cl)noc3C3CC3)sc2c1` [Compound 2-1, 2-((1S, 4S, 5R)-5-((5-cyclopropyl-3-(2,6-dichlorophenyl)isoxazol-4-yl)methoxy)-2-azabicyclo[2.2.1]heptan-2-yl)benzo[d]thiazole-6-carboxylic acid], the “Residual content (%) after 60 minutes of incubation” value in series [1] turned out to be 77%. For the same molecule, in series [2] (1 mg/kg p.o. QD for 3 weeks, increased or decreased ratio of the experimental group to the model group), the “Liver Weight/Body Weight” value is −9%*. Besides, in series [2] (H&E liver slices, 1 mg/kg p.o. QD for 3 weeks, model group 3, p<0.001), the “NAFLD Activity Score” value worked out at 1. In addition, the “effect on the NAFLD symptom of the mice” value in series [2] (at the administration dosage (1 mg/kg)) is “good improving effect”. Also, the TG in series [2] (liver TG, 1 mg/kg p.o. QD for 3 weeks, increased or decreased ratio of the experimental group to the model group) is given as −53%*. Further, in series [2] (serum, 1 mg/kg p.o. QD for 3 weeks, model group 0.31, p<0.01), the LDL is listed as 0.21.
